# How the values were obtained:
# NFκB = NFκB protein expression in mouse primary lung endothelial cells (MLEC), direct treatment, Western blot; format: cell-based; conditions: theophylline 1 μM, leucine 0.5 mM, resveratrol 200 nM, FIG. 1
# IL 6 [1] = test: IL 6 secretion from MLEC, direct treatment, ELISA; format: cell-based, mouse; conditions: FIG. 8
# Description: (§1) Cells were grown in Dulbecco's modified eagle's medium (DMEM) containing a growth factor supplement (Cell Biologics # M1 166) which included 5% fetal bovine serum (FBS), heparin, EGF, hydrocortisone, L-glutamine and antibiotics at 37° C. in 5% CO2.
# (§2) Interleukin 1-β, eotaxin, and interleukin 6 were all measured via enzyme-linked immunosorbent assay using specific antibodies for each cytokine (Abcam, Cambridge, Mass.) and a horseradish peroxidase-based second antibody detection system, with chromogenic detection at 450 nm using a microplate reader (Synergy HT, BioTek Instruments, Winooski, Vt.).
# (§3) Following treatment, western blots or ELISA assays were performed on the MLEC to determine the level of various indicators of airway diseases, such as NFκB protein expression, eotaxin secretion, IL1-β secretion, cellular IL6 content or secretion, adiponectin receptor 1 protein expression, and adiponectin receptor 2 protein expression.
# eotaxin = eotaxin secretion from MLEC, direct treatment, ELISA; format: cell-based, mouse; conditions: theophylline 1 μM, leucine 0.5 mM, resveratrol 200 nM, FIG. 5
# From the text: as §2
# IL1-β = IL1-β secretion from MLEC, direct treatment, ELISA; format: cell-based, mouse; conditions: theophylline 1 μM, leucine 0.5 mM, resveratrol 200 nM, FIG. 4
# From the text: as §2
# IL 6 [2] = test: cellular IL 6 content in MLEC, direct treatment; format: cell-based, mouse; conditions: theophylline 1 μM, leucine 0.5 mM, resveratrol 200 nM, FIG. 7
# Description: as §1, §2, §3
# phospho-NFκB = phospho-NFκB protein expression in MLEC, direct treatment, Western blot; format: cell-based, mouse; conditions: theophylline 1 μM, leucine 0.5 mM, resveratrol 200 nM
# Description: as §1
# For Western blot, 2 μg (for NFκB) or 4 μg (for phospho-NFκB) of protein from the cell lysate was resolved on 10% Tris/HCL polyacrylamide gels (Criterion precast gel, Bio-Rad Laboratories, Hercules, Calif.), transferred to PVDF membranes (NFκB and phospho-NFκB), incubated in blocking buffer (3% BSA in TBS) and then incubated with primary antibody, washed and incubated with secondary horseradish peroxidase-conjugated antibody.
# as §3
Compound,effect on NFκB protein expression relative to control (NFκB),effect on IL 6 secretion (in words) (IL 6 [1]),effect on eotaxin secretion (in words) (eotaxin),effect on IL1-β secretion (in words) (IL1-β),effect on cellular expression of IL 6 (IL 6 [2]),effect on phospho-NFκB levels (phospho-NFκB)
Cn1c(=O)c2[nH]cnc2n(C)c1=O [theophylline],no independent effect,no significant independent effect,no significant effect,no significant independent effect,unaffected,no effect
TNFα,,significant increase,no significant effect,increase,,

# — patent US20150359771A1, “TREATING PULMONARY CONDITIONS” (priority 2013, published 2015)
